Assay results: ChEMBL document CHEMBL4402579, “Identification of Potent In Vivo Autotaxin Inhibitors that Bind to Both Hydrophobic Pockets and Channels in the Catalytic Domain” (J Med Chem, 2020)
pIC50: −log10 of the molar value. Calls of active or inactive are those of the source. The rule behind the calls is not given here.

Tests used:
Autotaxin (Mus musculus) [1] = target: Autotaxin (Mus musculus) (UniProt Q9R1E6); assay: Inhibition of ATX in mouse plasma assessed as reduction in LPA prodution at 10 uM after 3 hrs by LC-MS/MS analysis; type: cell-free
Autotaxin [2] = target: Autotaxin (Mus musculus, UniProt Q9R1E6); assay: Inhibition of ATX in mouse plasma after 2 hrs by LC-MS/MS analysis; type: cell-free; conditions: for pIC50: read-out: IC50
Mus musculus = assay: In vivo inhibition of ATX in C57BL/6J mouse assessed as reduction in serum LPA level at 4 mg/kg, iv after 15 mins to 3 hrs by LC-MS/MS analysis; type: functional, organism-based
Autotaxin (Mus musculus) [3] = target: Autotaxin (Mus musculus) (UniProt Q9R1E6); assay: Inhibition of ATX in mouse plasma assessed as reduction in LPA prodution after 3 hrs by LC-MS/MS analysis; type: cell-free
Autotaxin [4] = target: T1, Autotaxin (Homo sapiens, UniProt Q13822); assay: Inhibition of ATX (unknown origin)-mediated cell migration in human MDA-MB-231 cells assessed as reduction in cell motility after 3 hrs by Diff-Quick staining based microplate reader analysis
Autotaxin [5] = target: T1, Autotaxin; assay: Inhibition of ATX (unknown origin) expressed in human HEK293 cells using TG-mTMP as substrate after 2 hrs by fluorescence based plate reader assay
Autotaxin (Mus musculus) [6] = target: Autotaxin (Mus musculus) (UniProt Q9R1E6); assay: Inhibition of mouse ATX expressed in one-cell stage zebra fish embryos assessed as rescue of cardia bifida phenotype at 10 uM incubated for 12 to 24 hrs post fertilization in presence of Ki16425 by whole mount in situ hybridization based microscopic analysis relative to control
Danio rerio = species on record: Danio rerio; assay: Inhibition of AB/TU zebra fish ATX expressed in one-cell stage zebra fish embryos assessed as rescue of carida bifida phenotype at 10 uM incubated for 12 to 24 hrs post fertilization in presence of Ki16425 by whole mount in situ hybridization based microscopic analysis relative to control

SMILES: Cc1cc(O)n2cc(-c3ccc(Br)cc3)nc2n1
- inhibition (Autotaxin (Mus musculus) [1]): inactive
- pIC50 (Autotaxin [2]): < 4.30

SMILES: Cc1cc(=O)n2cc(-c3ccc(Cl)cc3)nc2n1CC(=O)OC(C)(C)C
- inhibition (Autotaxin (Mus musculus) [1]): inactive
- pIC50 (Autotaxin [2]): 7.05

SMILES: Cc1ccc(-c2cn3c(O)cc(C)nc3n2)cc1
- inhibition (Autotaxin (Mus musculus) [1]): inactive
- pIC50 (Autotaxin [2]): < 4.30

SMILES: Cc1cc(=O)n2cc(-c3ccc(Cl)cc3)nc2n1CCS(=O)(=O)O
- pIC50 (Autotaxin [2]): < 4.30

SMILES: CCOC(=O)Cn1c(C)cc(=O)n2cc(-c3ccc(F)cc3)nc12
- inhibition (Autotaxin (Mus musculus) [1]): inactive
- pIC50 (Autotaxin [2]): 7.51

SMILES: CCCCCn1c(C)cc(=O)n2cc(-c3ccc(Cl)cc3)nc12
- inhibition (Mus musculus): Active
- inhibition (Autotaxin (Mus musculus) [3]): Dose-dependent effect
- inhibition (Autotaxin (Mus musculus) [1]): Active
- pIC50 (Autotaxin [2]): 8.03

SMILES: CCCCCn1c(C)cc(=O)n2cc(-c3ccc(C)cc3)nc12
- inhibition (Autotaxin (Mus musculus) [1]): Active
- pIC50 (Autotaxin [2]): 7.36

SMILES: CCC(=O)Cn1c(C)cc(=O)n2cc(-c3ccc(Cl)cc3)nc12
- inhibition (Autotaxin (Mus musculus) [1]): Active
- pIC50 (Autotaxin [2]): 7.43

SMILES: COc1cc(C)nc2nc(-c3ccc(Cl)cc3)cn12
- pIC50 (Autotaxin [2]): < 4.30

SMILES: COc1ccc(-c2cn3c(O)cc(C)nc3n2)cc1
- inhibition (Autotaxin (Mus musculus) [1]): inactive
- pIC50 (Autotaxin [2]): < 4.30

SMILES: Cc1cc(=O)n2cc(-c3ccc(Cl)cc3)nc2n1CC(=O)O
- inhibition (Autotaxin (Mus musculus) [1]): inactive
- pIC50 (Autotaxin [2]): 5.11

SMILES: CCCCCCn1c(C)cc(=O)n2cc(-c3ccc(Cl)cc3)nc12
- inhibition (Autotaxin [4]): Dose-dependent effect
- inhibition (Mus musculus): Active
- inhibition (Autotaxin (Mus musculus) [3]): Dose-dependent effect
- inhibition (Autotaxin (Mus musculus) [1]): Active
- pIC50 (Autotaxin [2]): 8.00

SMILES: CCCn1c(C)cc(=O)n2cc(-c3ccc(Cl)cc3)nc12
- pIC50 (Autotaxin [2]): 7.68

SMILES: CCNC(=O)Cn1c(C)cc(=O)n2cc(-c3ccc(Cl)cc3)nc12
- inhibition (Autotaxin (Mus musculus) [1]): inactive
- pIC50 (Autotaxin [2]): 6.43

SMILES: CCCCCCCCCCCCCCCC(=O)n1c(C)cc(=O)n2cc(-c3ccc(Cl)cc3)nc12
- IC50 (Autotaxin [2]): Nd(Insoluble)

SMILES: CCOC(=O)Cn1c(C)cc(=O)n2cc(-c3cccc([N+](=O)[O-])c3)nc12
- pIC50 (Autotaxin [2]): 6.30

SMILES: CC(=O)OCn1c(C)cc(=O)n2cc(-c3ccc(Cl)cc3)nc12
- pIC50 (Autotaxin [2]): 7.52

SMILES: CCCCCCCn1c(C)cc(=O)n2cc(-c3ccc(Cl)cc3)nc12
- inhibition (Autotaxin (Mus musculus) [1]): Active
- pIC50 (Autotaxin [2]): 7.80

SMILES: CCOC(=O)Cn1c(C)cc(=O)n2cc(-c3ccccc3)nc12
- pIC50 (Autotaxin [2]): 7.14

SMILES: Cc1cc(O)n2cc(-c3cccc(Br)c3)nc2n1
- inhibition (Autotaxin (Mus musculus) [1]): inactive
- pIC50 (Autotaxin [2]): < 4.30

SMILES: CCCCCn1c(C)cc(=O)n2cc(-c3ccc(F)cc3)nc12
- inhibition (Autotaxin (Mus musculus) [1]): Active
- pIC50 (Autotaxin [2]): 7.15

SMILES: CCn1c(C)cc(=O)n2cc(-c3ccc(Cl)cc3)nc12
- pIC50 (Autotaxin [2]): 7.40

SMILES: CCCCCCCCCn1c(C)cc(=O)n2cc(-c3ccc(Cl)cc3)nc12
- pIC50 (Autotaxin [2]): 6.92

SMILES: CCOC(=O)Cn1c(C)cc(=O)n2cc(-c3ccc([N+](=O)[O-])cc3)nc12
- pIC50 (Autotaxin [2]): 7.85

SMILES: Cc1cc(=O)n2cc(-c3ccc(Cl)cc3)nc2n1CC[N+](C)(C)C
- pIC50 (Autotaxin [2]): < 4.30

SMILES: CN1CCN(C2=NC(=O)/C(=C/c3ccc(Cl)c(Cl)c3)S2)CC1
- pIC50 (Autotaxin [5]): 6.74
- inhibition (Autotaxin (Mus musculus) [6]): 96%
- inhibition (Danio rerio): 3%

SMILES: Cc1cc(=O)n2cc(-c3ccc(Cl)cc3)nc2n1Cc1ccccc1
- inhibition (Autotaxin (Mus musculus) [1]): Active
- pIC50 (Autotaxin [2]): 7.51

SMILES: CCCCCCCN/C=C1\C(=O)N(c2ccc(F)cc2)C(=O)N=C1O
- inhibition (Autotaxin (Mus musculus) [6]): 94%
- inhibition (Danio rerio): 1%

SMILES: Cc1cc(O)n2cc(-c3ccc(Cl)c(Cl)c3)nc2n1
- inhibition (Autotaxin (Mus musculus) [1]): inactive
- pIC50 (Autotaxin [2]): < 4.30

SMILES: Cc1cc(=O)n2cc(-c3ccc(Cl)cc3)nc2n1C1CCCCC1
- inhibition (Autotaxin (Mus musculus) [1]): Active
- pIC50 (Autotaxin [2]): 7.14

SMILES: CCOC(=O)Cn1c(C)cc(=O)n2cc(-c3cccc(Br)c3)nc12
- pIC50 (Autotaxin [2]): 5.40

SMILES: CCCCn1c(C)cc(=O)n2cc(-c3ccc(Cl)cc3)nc12
- inhibition (Autotaxin (Mus musculus) [1]): Active
- pIC50 (Autotaxin [2]): 7.82

SMILES: Cc1cc(O)n2cc(-c3ccccc3)nc2n1
- inhibition (Autotaxin (Mus musculus) [1]): inactive
- pIC50 (Autotaxin [2]): < 4.30

SMILES: CCCCCCCCCC(=O)n1c(C)cc(=O)n2cc(-c3ccc(Cl)cc3)nc12
- pIC50 (Autotaxin [2]): 6.80

SMILES: CCOC(=O)Cn1c(C)cc(=O)n2cc(-c3ccc(I)cc3)nc12
- pIC50 (Autotaxin [2]): 7.72

SMILES: CCOC(=O)Cn1c(C)cc(=O)n2cc(-c3ccc(Cl)cc3)nc12
- pIC50 (Autotaxin [5]): 8.38
- inhibition (Autotaxin (Mus musculus) [1]): inactive
- pIC50 (Autotaxin [2]): 8.48
- inhibition (Autotaxin (Mus musculus) [6]): 93%
- inhibition (Danio rerio): 8%

SMILES: Cc1cc(O)n2cc(-c3cccc([N+](=O)[O-])c3)nc2n1
- inhibition (Autotaxin (Mus musculus) [1]): inactive
- pIC50 (Autotaxin [2]): < 4.30

SMILES: Cc1nc2ccccn2c(=O)c1Cc1ccc(Cl)cc1
- inhibition (Autotaxin (Mus musculus) [6]): 91%
- inhibition (Danio rerio): 6%

SMILES: O=C1N=C(N2CCN(Cc3cccc(B(O)O)c3)CC2)S/C1=C\c1ccc(Cl)c(Cl)c1
- pIC50 (Autotaxin [5]): 7.89
- inhibition (Autotaxin (Mus musculus) [6]): 98%

SMILES: Cc1cc(=O)n2cc(-c3ccc(Cl)cc3)nc2n1CC(=O)OCc1ccccc1
- inhibition (Autotaxin (Mus musculus) [1]): inactive
- pIC50 (Autotaxin [2]): 7.25

SMILES: Cc1cc(=O)n2cc(-c3ccc(Cl)cc3)nc2n1C
- pIC50 (Autotaxin [2]): 6.74

SMILES: Cc1cc(O)n2cc(-c3ccc(F)cc3)nc2n1
- inhibition (Autotaxin (Mus musculus) [1]): inactive
- pIC50 (Autotaxin [2]): < 4.30

SMILES: Cc1cc(O)n2cc(-c3ccc([N+](=O)[O-])cc3)nc2n1
- inhibition (Autotaxin (Mus musculus) [1]): inactive
- pIC50 (Autotaxin [2]): < 4.30

SMILES: CCCCCCCCn1c(C)cc(=O)n2cc(-c3ccc(Cl)cc3)nc12
- pIC50 (Autotaxin [2]): 7.24

SMILES: CCOC(=O)Cn1c(C)cc(=O)n2cc(-c3ccc(Cl)c(Cl)c3)nc12
- pIC50 (Autotaxin [2]): 7.10

SMILES: CCOC(=O)Cn1c(C)cc(=O)n2cc(-c3ccc(N)cc3)nc12
- pIC50 (Autotaxin [2]): < 5.00

SMILES: CCOCCn1c(C)cc(=O)n2cc(-c3ccc(Cl)cc3)nc12
- inhibition (Autotaxin (Mus musculus) [1]): Active
- pIC50 (Autotaxin [2]): 7.96

SMILES: CCN1CCN(C2=NC(=O)/C(=C/c3ccc(Cl)cc3)S2)CC1
- inhibition (Autotaxin (Mus musculus) [6]): 95%
- inhibition (Danio rerio): 10%

SMILES: Cc1cc(Cl)n2cc(-c3ccc(Cl)cc3)nc2n1
- pIC50 (Autotaxin [2]): < 4.30

SMILES: CCCCCn1c(C)cc(=O)n2cc(-c3ccc(Br)cc3)nc12
- inhibition (Autotaxin (Mus musculus) [3]): Dose-dependent effect
- inhibition (Autotaxin (Mus musculus) [1]): Active
- pIC50 (Autotaxin [2]): 7.64

SMILES: CCOC(=O)Cn1c(C)cc(=O)n2cc(-c3ccc(OC)cc3)nc12
- inhibition (Autotaxin (Mus musculus) [1]): inactive
- pIC50 (Autotaxin [2]): 7.31

SMILES: COC(=O)Cn1c(C)cc(=O)n2cc(-c3ccc(Cl)cc3)nc12
- inhibition (Autotaxin (Mus musculus) [1]): inactive
- pIC50 (Autotaxin [2]): 7.59

SMILES: Cc1cc(O)n2cc(-c3ccc(Cl)cc3)nc2n1
- inhibition (Autotaxin (Mus musculus) [1]): inactive
- pIC50 (Autotaxin [2]): < 4.30

SMILES: CCOC(=O)Cn1c(C)cc(=O)n2cc(-c3cccc(N)c3)nc12
- pIC50 (Autotaxin [2]): < 5.00

SMILES: CCOC(=O)Cn1c(C)cc(=O)n2cc(-c3ccc(Br)cc3)nc12
- inhibition (Autotaxin (Mus musculus) [1]): inactive
- pIC50 (Autotaxin [2]): 7.89

SMILES: CCN(C)C(=O)Cn1c(C)cc(=O)n2cc(-c3ccc(Cl)cc3)nc12
- pIC50 (Autotaxin [2]): 6.66
